Data reported in patent US4243812A, “Processes for the preparation of glyoxal-2-oxims” (Taiho Pharmaceutical Company, priority 1978, dated 1981).

Legend:
[1] = tested on: acetic acid stretching symptom; experiment: Analgesic activity (Acetic acid stretching method); format: in vivo, mouse (ddy-strain); conditions: 100 mg per kg oral, ddy-strain mice, 0.2 ml of 0.7% acetic acid intraperitoneal
Protocol: (3) Analgesic activity (Acetic acid stretching method)
After the compounds to be tested were orally administrated in 100 mg per kg of ddy-strain mice having their weight range of 20 to 25 g, 0.2 ml of 0.7% acetic acid was intra-peritoneally administrated to each animal to observe stretching symptom thereby having found the inhibition ratio (%).

[2] = Acute toxicity (LD50, oral, mice); conditions: mouse, in vivo, dd-strain male mice 20 to 25 g, fasted overnight, suspended in 0.5% carboxymethyl cellulose, observed seven days
Description: The compounds to be tested were suspended in 0.5% carboxymethyl cellulose solution, and the suspension was orally administrated in variable amounts in response to the weights of dd-strain male mice having those ranging from 20 to 25 g which were forced to abstain from food overnight.

carrageenin edema = experiment: Anti-inflammatory activity (Carrageenin edema method); format: in vivo, rat (Wistar strain; conditions: 100 mg per kg oral, Wistar-strain male rats, 0.1 ml of 1% carrageenin s.c. left hind paw, edema weight after three hours, vs control group
Protocol: (2) Anti-inflammatory activity (Carrageenin edema method)
The compounds to be tested were suspended in 0.5% carboxymethyl cellulose solution, and the suspension was orally administrated in 100 mg per kg of Wistarstrain male rats having their weight range of 130 to 170 g which were forced to abstain from food overnight. These rats were then injected subcutaneously into their left hind paws each with 0.1 ml of a physiological NaCl solution having dissolved therein carrageen in 1% concentration. After three hours from said injection, the rats were killed, both hind legs were cut out and promptly weighed. There is assumed as weight of edema a value obtained by deducting a weight of untreated hind leg from that of the carrageenin injected hind leg of the rat. Inhibition ratio of a sample-administrated group to a control group has been sought. The control group was administrated only with 0.5% […] solution in the same manner.

Row | SMILES | Analgesic activity (Stretching method), inhibition ratio [1] | LD50 at 168 h [2] | Anti-inflammatory activity (Carrageenin edema method), inhibition ratio (carrageenin edema)
1 | Cc1cc(C(=O)C=NO)on1 [(3-Methylisoxazole-5-yl)glyoxal-2-oxim, (3-methylisoxazole-5-yl)glyoxal-2-oxim] | 50% | 890 mg/kg | 83%
2 | O=C(C=NO)c1cc(-c2ccccc2)no1 [(3-Phenylisoxazole-5-yl)glyoxal-2-oxim, (3-phenylisoxazole-5-yl)glyoxal-2-oxim] | 75% | 1690 mg/kg | 56%
